Reference: paper PMC4879574, “Identification of Leishmania donovani Topoisomerase 1 inhibitors via intuitive scaffold hopping and bioisosteric modification of known Top 1 inhibitors” (Scientific Reports, 2016)

Molecular target: T1, Human Top1 (HTop1) (Homo sapiens, UniProt P11387)
T1 construct: made in house; host or cells: Sf-9 insect cells infected with recombinant baculovirus (gift from Prof. J. J. Champoux)
T1 sequence (P11387 1-765): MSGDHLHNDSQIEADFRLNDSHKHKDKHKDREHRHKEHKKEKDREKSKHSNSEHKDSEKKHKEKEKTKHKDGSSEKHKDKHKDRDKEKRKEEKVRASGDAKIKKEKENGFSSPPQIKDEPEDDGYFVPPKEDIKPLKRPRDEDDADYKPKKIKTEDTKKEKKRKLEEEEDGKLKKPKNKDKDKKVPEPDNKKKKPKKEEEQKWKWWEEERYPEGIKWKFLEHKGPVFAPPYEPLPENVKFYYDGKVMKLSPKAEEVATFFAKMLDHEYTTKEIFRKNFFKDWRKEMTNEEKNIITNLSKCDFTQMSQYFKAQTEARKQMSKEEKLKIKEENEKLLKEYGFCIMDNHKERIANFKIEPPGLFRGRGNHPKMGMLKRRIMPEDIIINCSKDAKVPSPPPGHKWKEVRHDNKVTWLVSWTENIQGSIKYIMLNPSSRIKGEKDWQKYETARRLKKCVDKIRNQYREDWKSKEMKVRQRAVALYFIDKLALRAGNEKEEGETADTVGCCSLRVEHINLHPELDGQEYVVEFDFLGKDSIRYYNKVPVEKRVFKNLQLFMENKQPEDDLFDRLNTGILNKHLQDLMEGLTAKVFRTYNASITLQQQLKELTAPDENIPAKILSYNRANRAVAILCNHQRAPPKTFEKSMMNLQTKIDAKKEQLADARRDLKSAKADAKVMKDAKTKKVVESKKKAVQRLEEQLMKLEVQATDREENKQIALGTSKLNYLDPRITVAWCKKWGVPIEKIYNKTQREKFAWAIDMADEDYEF
Assay: Plasmid DNA relaxation assay, HTop1
Type: biochemical
Settings: averages of three experiments, read-out: HTop1 inhibition (EC50)
Description: To investigate the inhibitory effect of our library compounds on the DNA relaxation activity of the recombinant Human and Leishmania topoisomerase 1 (Table 2), assays were performed involving supercoiled plasmid DNA, the enzymes (HTop1 and LdTop1) and our molecules. The enzymes were purified by the standard literature procedure.
The type I DNA topoisomerase are assayed by decreased mobility of the relaxed isomers of supercoiled pBS (SK^+) [pBlue-script (SK^+)] DNA in agarose gel. The relaxation assay was carried out as described previously with LdTop1B and HTop I, diluted in the relaxation buffer (25 mM Tris–HCl, pH 7.5, 5% glycerol, 0.5 mM DTT, 10 mM MgCl2, 50 mM KCl, […] and […] BSA) and supercoiled plasmid pBS (SK^+) DNA (85–95% were negatively supercoiled, with remainder being nicked circles)[9][28][29]. The reconstituted enzyme LdTop1B was assayed at 50 mM KCl concentration as described before. For all kinetic studies, the reaction mixtures containing the buffer and DNA were heated to 37 °C before addition of the enzymes. The reactions were rapidly quenched using stop solution and kept on ice. The gels were stained with ethidium bromide (EtBr) ([…]) and the amount of supercoiled monomer DNA band fluorescence were quantified by integration using Gel Doc 2000 under UV illumination (Bio-Rad Quantity One Software), as described previously.
The wild-type HTop1 (91 kDa) was purified from Sf-9 insect cells infected with the recombinant baculovirus (a kind gift from Prof. J. J. Champoux). Approximately, 1 * 10^9 Sf-9 cells were infected with the recombinant virus, and cells were harvested after 48-h of infection. The cells were lysed and enzyme was purified as described. Briefly, at 48 h post-infection, approximately 3 * 10^9 Sf-9 cells were harvested by centrifugation for 5 min at 400 * g. The cells were resuspended in 1 liter of ice-cold phosphate-buffered saline and centrifuged for 5 min at 400 * g. The nuclei were washed twice in 80 ml of lysis buffer minus Triton X-100 and resuspended in 40 ml of resuspension buffer (50 mM KCl, 10 mM Tris-Cl, pH 7.5, 2 mM MgCl2, 25 mM DTT, 0.4 mg/ml phenylmethylsulfonyl fluoride, 0.12 mg/ml aprotinin). The nuclear extract was stirred for 5 min at ~200 rpm. With continued stirring, 50 ml of polyethylene glycol (PEG) buffer (18% PEG 8000, 1 M NaCl, 10% glycerol) was added dropwise in order to precipitate the DNA. The PEG precipitate was pelleted by centrifugation and the resulting PEG supernatant was dialyzed against 4 liters of potassium phosphate buffer. The dialyzed PEG supernatant passed over a 10-ml bed volume of phosphocellulose (Whatman P11) equilibrated with PPB. The HTop1 flowed through the PS column and then passed over a Mono Q column followed by loaded onto a Mono S column. The Mono S column was eluted with a 25-ml 50–200 mM KPO4, pH 7.4, gradient. […] The peak Mono S fractions were pooled, concentrated with an Amicon ultrafiltration cell, dialyzed into storage buffer (50% glycerol, 10 mM Tris-hydrochloride, pH 7.5, 1 mM DTT, 1 mM EDTA), and stored at −20 °C.

EC50: > 100 µM
SMILES: Cc1cc2c(c(=O)[nH]1)C(=O)O/C2=C\c1ccc(O)c(O)c1 [Compound 4]
